Assay results reported in patent US20220409577A1, “INTRATUMORAL ADMINISTRATION OF ASCORBIC ACID AND QUINONE COMPOUNDS FOR TUMOR TREATMENT” (IC-MedTech Corp., priority 2021, published 2022).

System: Glioblastoma cells (GS9L)
Test: Antitumor activity in a glioblastoma xenograft mouse model (GS9L), intracranial treatment
Format: in vivo, Balb/c nude mice
Details: glioblastoma-bearing mice; single intracranial injection on Day 4; TMZ 4 mg/kg; L-ascorbic acid 1.4 or 7 mg/kg + menadione 14 or 70 μg/kg, then oral L-ascorbic acid 15 g/L and menadione 150 mg/L in water daily
Experimental: Six-week-old male Balb/c nude mice were maintained in specific pathogen-free conditions. Glioblastoma cells (GS9L) were cultured in DMEM supplemented with 10% FBS, penicillin (100 U/mL), and streptomycin (100 mg/L) at 37° C. in a humidified atmosphere containing 5% CO2. After deep anesthesia, the mice were positioned in a stereotactic frame. A small craniectomy was performed at 2-3 mm from the midline and 1 mm anterior to the coronal suture. The glioblastoma cells (5×10^5 cells in 5 μL) were stereotactically injected into the brain parenchyma at a depth of 3 mm on Day 1 using an automated injector.
Vitamin C (L-ascorbic acid) was dissolved in PBS at 10 mM (pH 7.4). Menadione and temozolomide (TMZ) were each dissolved in DMSO at 10 mM as a stock solution and diluted in PBS when in use. The final concentration of DMSO was below 1%. […] The glioblastoma-bearing mice were analyzed on Days 4, 7, 14, 21, and 28 (i.e., 0, 3, 10, 17, and 24 days after drug administration) by MRI to determine the size of the glioblastoma. […]

For Cn1nnc2c(C(N)=O)ncn2c1=O [TMZ, temozolomide], the “side-effects (e.g., fever, tetraplegia, or convulsions)” value was “experienced side-effects (e.g., fever, tetraplegia, or convulsions)”.
